Experimental data taken from patent US12139492B2 (Endotarget Inc., priority 2021, dated 2024).

Columns and labels:
[1] = biological target: BTK (Homo sapiens, UniProt Q06187); assay: Degradation of BTK protein in Namalwa cells (Western blot; DC50, Dmax); conditions: for DC50: BTK degradation, cell line not given
[2] = system: JeKo-1 cells; assay: Antiproliferative effect, MTS cell viability assay, JeKo-1 cells; format: cell-based; conditions: Homo sapiens; JeKo-1 mantle cell lymphoma cells; read-out: IC50 (anti-proliferation) JeKO-1 cells
How it was run: (§1)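 Steps: seed B-cell lymphoma line; add compound at 0, 0.001, 0.01, 0.1, 1 or 10 μM; incubate 72 h; add MTS and read reduced tetrazolium (formazan) absorbance at 490 nm.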

[3] = system: Mino cells; assay: Antiproliferative effect, MTS cell viability assay, Mino cells; format: cell-based; conditions: Homo sapiens, MINO, Mino mantle cell lymphoma cells; read-out: IC50 (anti-proliferation) Mino cells
How it was run: as §1

Sequence of BTK (Q06187 whole entry): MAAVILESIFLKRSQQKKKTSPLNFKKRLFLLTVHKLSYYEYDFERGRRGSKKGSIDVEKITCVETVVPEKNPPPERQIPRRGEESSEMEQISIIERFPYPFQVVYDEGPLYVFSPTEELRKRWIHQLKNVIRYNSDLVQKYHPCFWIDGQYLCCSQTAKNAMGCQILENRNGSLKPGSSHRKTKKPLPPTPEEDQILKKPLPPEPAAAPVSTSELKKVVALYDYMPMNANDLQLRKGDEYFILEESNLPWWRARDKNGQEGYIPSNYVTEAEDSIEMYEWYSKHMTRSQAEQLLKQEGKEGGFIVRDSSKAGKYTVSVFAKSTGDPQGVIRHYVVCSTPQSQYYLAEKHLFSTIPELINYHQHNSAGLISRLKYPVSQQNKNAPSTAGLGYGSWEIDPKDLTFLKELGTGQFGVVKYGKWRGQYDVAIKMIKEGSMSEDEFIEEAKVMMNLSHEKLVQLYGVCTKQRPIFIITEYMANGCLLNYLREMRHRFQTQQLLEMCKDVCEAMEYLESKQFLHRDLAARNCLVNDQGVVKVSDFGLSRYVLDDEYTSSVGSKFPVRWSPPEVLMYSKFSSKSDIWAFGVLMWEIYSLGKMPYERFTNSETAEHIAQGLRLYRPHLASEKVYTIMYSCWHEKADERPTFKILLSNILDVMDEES

| Dmax [1] [%] | DC50 [1] [nM] | SMILES | IC50 [2] [nM] | IC50 [3] [nM] |
| --- | --- | --- | --- | --- |
| > 75 | 10 to 50 | NC(=O)c1c(-c2ccc(Oc3ccccc3)cc2)nn2c1NCCC2C1CCN(CC2CCN(C(=O)N3CCC(CN4CCC(c5ccc6c(c5)C(=O)N(C5CCC(=O)NC5=O)C6=O)CC4)CC3)CC2)CC1 (stereo not drawn) [Compound 375, 7-(1-((1-(4-((4-(2-(2,6-dioxopiperidin-3-yl)-1,3-dioxoisoindolin-5-yl)piperidin-1-yl)methyl)piperidine-1-carbonyl)piperidin-4-yl)methyl)piperidin-4-yl)-2-(4-phenoxyphenyl)-4,5,6,7-tetrahydropyrazolo[1,5-a]pyrimidine-3-carboxamide] | 1000 to 10000 | 1000 to 10000 |
| > 75 | 10 to 50 | NC(=O)c1c(-c2ccc(Oc3ccccc3)cc2)nn2c1NCCC2C1CCN(CC2CCN(C(=O)N3CCC(CN4CCC(c5ccc6c(c5)CN(C5CCC(=O)NC5=O)C6=O)CC4)CC3)CC2)CC1 (stereo not drawn) [Compound 376, 7-(1-((1-(4-((4-(2-(2,6-dioxopiperidin-3-yl)-1-oxoisoindolin-5-yl)piperidin-1-yl)methyl)piperidine-1-carbonyl)piperidin-4-yl)methyl)piperidin-4-yl)-2-(4-phenoxyphenyl)-4,5,6,7-tetrahydropyrazolo[1,5-a]pyrimidine-3-carboxamide] | 1000 to 10000 | 1000 to 10000 |
| > 50 | > 50 | NC(=O)c1c(-c2ccc(Oc3ccccc3)cc2)nn2c1NCC[C@H]2C1CCN(C2CCN(C(=O)N3CCN(c4ccc5c(c4)CN(C4CCC(=O)NC4=O)C5=O)CC3)CC2)CC1 (stereo partly drawn) [Compound 378, (7S)-7-(1′-(4-(2-(2,6-dioxopiperidin-3-yl)-1-oxoisoindolin-5-yl)piperazine-1-carbonyl)-[1,4′-bipiperidin]-4-yl)-2-(4-phenoxyphenyl)-4,5,6,7-tetrahydropyrazolo[1,5-a]pyrimidine-3-carboxamide] | > 10000 | > 10000 |
| > 75 | > 50 | NC(=O)c1c(-c2ccc(Oc3ccccc3)cc2)nn2c1NCC[C@H]2C1CCN(C2CCN(C(=O)N3CCN(Cc4ccc5c(c4)C(=O)N(C4CCC(=O)NC4=O)C5=O)CC3)CC2)CC1 (stereo partly drawn) [Compound 379, (7S)-7-(1′-(4-((2-(2,6-dioxopiperidin-3-yl)-1,3-dioxoisoindolin-5-yl)methyl)piperazine-1-carbonyl)-[1,4′-bipiperidin]-4-yl)-2-(4-phenoxyphenyl)-4,5,6,7-tetrahydropyrazolo[1,5-a]pyrimidine-3-carboxamide] | > 10000 | > 10000 |
| > 75 | > 50 | NC(=O)c1c(-c2ccc(Oc3ccccc3)cc2)nn2c1NCC[C@H]2C1CCN(C2CCN(C(=O)N3CCN(Cc4ccc5c(c4)CN(C4CCC(=O)NC4=O)C5=O)CC3)CC2)CC1 (stereo partly drawn) [Compound 380, (7S)-7-(1′-(4-((2-(2,6-dioxopiperidin-3-yl)-1-oxoisoindolin-5-yl)methyl)piperazine-1-carbonyl)-[1,4′-bipiperidin]-4-yl)-2-(4-phenoxyphenyl)-4,5,6,7-tetrahydropyrazolo[1,5-a]pyrimidine-3-carboxamide] | > 10000 | 1000 to 10000 |
| > 90 | < 10 | NC(=O)c1c(-c2ccc(Oc3ccccc3)cc2)nn2c1NCC[C@H]2C1CCN(C2CCN(C(=O)N3CCC(N4CCN(c5ccc6c(c5)C(=O)N(C5CCC(=O)NC5=O)C6=O)CC4)CC3)CC2)CC1 (stereo partly drawn) [Compound 381, (7S)-7-(1′-(4-(4-(2-(2,6-dioxopiperidin-3-yl)-1,3-dioxoisoindolin-5-yl)piperazin-1-yl)piperidine-1-carbonyl)-[1,4′-bipiperidin]-4-yl)-2-(4-phenoxyphenyl)-4,5,6,7-tetrahydropyrazolo[1,5-a]pyrimidine-3-carboxamide] | < 1000 | < 1000 |
| > 90 | < 10 | NC(=O)c1c(-c2ccc(Oc3ccccc3)cc2)nn2c1NCC[C@H]2C1CCN(C2CCN(C(=O)N3CCC(N4CCN(c5ccc6c(c5)CN(C5CCC(=O)NC5=O)C6=O)CC4)CC3)CC2)CC1 (stereo partly drawn) [Compound 382, (7S)-7-(1′-(4-(4-(2-(2,6-dioxopiperidin-3-yl)-1-oxoisoindolin-5-yl)piperazin-1-yl)piperidine-1-carbonyl)-[1,4′-bipiperidin]-4-yl)-2-(4-phenoxyphenyl)-4,5,6,7-tetrahydropyrazolo[1,5-a]pyrimidine-3-carboxamide] | < 1000 | < 1000 |
| > 90 | 10 to 50 | NC(=O)c1c(-c2ccc(Oc3ccccc3)cc2)nn2c1NCC[C@H]2C1CCN(C2CCN(C(=O)N3CCC(C4CCN(c5ccc6c(c5)C(=O)N(C5CCC(=O)NC5=O)C6=O)CC4)CC3)CC2)CC1 (stereo partly drawn) [Compound 383, (7S)-7-(1′-(1′-(2-(2,6-dioxopiperidin-3-yl)-1,3-dioxoisoindolin-5-yl)-[4,4′-bipiperidine]-1-carbonyl)-[1,4′-bipiperidin]-4-yl)-2-(4-phenoxyphenyl)-4,5,6,7-tetrahydropyrazolo[1,5-a]pyrimidine-3-carboxamide] | < 1000 | < 1000 |
| > 90 | < 10 | NC(=O)c1c(-c2ccc(Oc3ccccc3)cc2)nn2c1NCC[C@H]2C1CCN(C2CCN(C(=O)N3CCC(C4CCN(c5ccc6c(c5)CN(C5CCC(=O)NC5=O)C6=O)CC4)CC3)CC2)CC1 (stereo partly drawn) [Compound 384, (7S)-7-(1′-(1′-(2-(2,6-dioxopiperidin-3-yl)-1-oxoisoindolin-5-yl)-[4,4′-bipiperidine]-1-carbonyl)-[1,4′-bipiperidin]-4-yl)-2-(4-phenoxyphenyl)-4,5,6,7-tetrahydropyrazolo[1,5-a]pyrimidine-3-carboxamide] | 1000 to 10000 | < 1000 |
| > 90 | < 10 | NC(=O)c1c(-c2ccc(Oc3ccccc3)cc2)nn2c1NCC[C@H]2C1CCN(C2CCN(C(=O)N3CCN(C4CCN(c5ccc6c(c5)C(=O)N(C5CCC(=O)NC5=O)C6=O)CC4)CC3)CC2)CC1 (stereo partly drawn) [Compound 385, (7S)-7-(1′-(4-(1-(2-(2,6-dioxopiperidin-3-yl)-1,3-dioxoisoindolin-5-yl)piperidin-4-yl)piperazine-1-carbonyl)-[1,4′-bipiperidin]-4-yl)-2-(4-phenoxyphenyl)-4,5,6,7-tetrahydropyrazolo[1,5-a]pyrimidine-3-carboxamide] | 1000 to 10000 | < 1000 |
| > 90 | < 10 | NC(=O)c1c(-c2ccc(Oc3ccccc3)cc2)nn2c1NCC[C@H]2C1CCN(C2CCN(C(=O)N3CCN(C4CCN(c5ccc6c(c5)CN(C5CCC(=O)NC5=O)C6=O)CC4)CC3)CC2)CC1 (stereo partly drawn) [Compound 386, (7S)-7-(1′-(4-(1-(2-(2,6-dioxopiperidin-3-yl)-1-oxoisoindolin-5-yl)piperidin-4-yl)piperazine-1-carbonyl)-[1,4′-bipiperidin]-4-yl)-2-(4-phenoxyphenyl)-4,5,6,7-tetrahydropyrazolo[1,5-a]pyrimidine-3-carboxamide] | < 1000 | < 1000 |
| > 90 | 10 to 50 | NC(=O)c1c(-c2ccc(Oc3ccccc3)cc2)nn2c1NCC[C@H]2C1CCN(C2CCN(C(=O)N3CCC(N4CCC(c5ccc6c(c5)C(=O)N(C5CCC(=O)NC5=O)C6=O)CC4)CC3)CC2)CC1 (stereo partly drawn) [Compound 387, (7S)-7-(1′-(4-(2-(2,6-dioxopiperidin-3-yl)-1,3-dioxoisoindolin-5-yl)-[1,4′-bipiperidine]-1′-carbonyl)-[1,4′-bipiperidin]-4-yl)-2-(4-phenoxyphenyl)-4,5,6,7-tetrahydropyrazolo[1,5-a]pyrimidine-3-carboxamide] | 1000 to 10000 | 1000 to 10000 |
| > 90 | 10 to 50 | NC(=O)c1c(-c2ccc(Oc3ccccc3)cc2)nn2c1NCC[C@H]2C1CCN(C2CCN(C(=O)N3CCC(N4CCC(c5ccc6c(c5)CN(C5CCC(=O)NC5=O)C6=O)CC4)CC3)CC2)CC1 (stereo partly drawn) [Compound 388, (7S)-7-(1′-(4-(2-(2,6-dioxopiperidin-3-yl)-1-oxoisoindolin-5-yl)-[1,4′-bipiperidine]-1′-carbonyl)-[1,4′-bipiperidin]-4-yl)-2-(4-phenoxyphenyl)-4,5,6,7-tetrahydropyrazolo[1,5-a]pyrimidine-3-carboxamide] | 1000 to 10000 | < 1000 |
| > 90 | 10 to 50 | NC(=O)c1c(-c2ccc(Oc3ccccc3)cc2)nn2c1NCC[C@H]2C1CCN(C2CCN(C(=O)N3CCC(CN4CCN(c5ccc6c(c5)C(=O)N(C5CCC(=O)NC5=O)C6=O)CC4)CC3)CC2)CC1 (stereo partly drawn) [Compound 389, (7S)-7-(1′-(4-((4-(2-(2,6-dioxopiperidin-3-yl)-1,3-dioxoisoindolin-5-yl)piperazin-1-yl)methyl)piperidine-1-carbonyl)-[1,4′-bipiperidin]-4-yl)-2-(4-phenoxyphenyl)-4,5,6,7-tetrahydropyrazolo[1,5-a]pyrimidine-3-carboxamide] | 1000 to 10000 | 1000 to 10000 |
| > 90 | 10 to 50 | NC(=O)c1c(-c2ccc(Oc3ccccc3)cc2)nn2c1NCC[C@H]2C1CCN(C2CCN(C(=O)N3CCC(CN4CCN(c5ccc6c(c5)CN(C5CCC(=O)NC5=O)C6=O)CC4)CC3)CC2)CC1 (stereo partly drawn) [Compound 390, (7S)-7-(1′-(4-((4-(2-(2,6-dioxopiperidin-3-yl)-1-oxoisoindolin-5-yl)piperazin-1-yl)methyl)piperidine-1-carbonyl)-[1,4′-bipiperidin]-4-yl)-2-(4-phenoxyphenyl)-4,5,6,7-tetrahydropyrazolo[1,5-a]pyrimidine-3-carboxamide] | > 10000 | 1000 to 10000 |
